As a reminder, the IC50 is the midpoint of a concentration-inhibition curve. Higher therefore signals weaker potency.

One assay concerns the target T1, KRas^WT (Homo sapiens, UniProt P01116).
T1 construct: Biotinylated KRas (corresponding to amino acids 1-169, produced at Accelegan Inc.); biotin (biotinylated); purchased Accelegan Inc
The assay is described as follows: KRas binding assay (TR-FRET tracer displacement), KRas WT. The following applies: TR-FRET tracer displacement, KRas WT. A general note: In TR-FRET formats the signal depends on donor and acceptor labels being close together.

A further assay concerns the target T2, KRas^G12A (Homo sapiens, UniProt P01116, G12A).
T2 construct: Biotinylated KRas (corresponding to amino acids 1-169, produced at Accelegan Inc.); biotin (biotinylated); purchased Accelegan Inc
Description: KRas binding assay (TR-FRET tracer displacement), KRas G12A. The following applies: TR-FRET tracer displacement, KRas G12A.

In another assay the target is T3, KRas^G12C (Homo sapiens, UniProt P01116, G12C).
T3 construct: Biotinylated KRas (corresponding to amino acids 1-169, produced at Accelegan Inc.); biotin (biotinylated); purchased Accelegan Inc
The assay is described as follows: KRas binding assay (TR-FRET tracer displacement), KRas G12C. The following applies: TR-FRET tracer displacement, KRas G12C.

In another assay the target is T4, KRas^G12D (Homo sapiens, UniProt P01116, G12D).
T4 construct: Biotinylated KRas (corresponding to amino acids 1-169, produced at Accelegan Inc.); biotin (biotinylated); purchased Accelegan Inc
The assay is described as follows: KRas binding assay (TR-FRET tracer displacement), KRas G12D.

Another assay addresses T5, KRas^G12R (Homo sapiens, UniProt P01116, G12R).
T5 construct: Biotinylated KRas (corresponding to amino acids 1-169, produced at Accelegan Inc.); biotin (biotinylated); purchased Accelegan Inc
The assay is described as follows: KRas binding assay (TR-FRET tracer displacement), KRas G12R.

Another assay has as its target T6, KRas^G12S (Homo sapiens, UniProt P01116, G12S).
T6 construct: Biotinylated KRas (corresponding to amino acids 1-169, produced at Accelegan Inc.); biotin (biotinylated); purchased Accelegan Inc
Description: KRas binding assay (TR-FRET tracer displacement), KRas G12S. The following applies: TR-FRET tracer displacement, KRas G12S.

The target in the next assay is T7, KRas^G12V (Homo sapiens, UniProt P01116, G12V).
T7 construct: Biotinylated KRas (corresponding to amino acids 1-169, produced at Accelegan Inc.); biotin (biotinylated); purchased Accelegan Inc
Description: KRas binding assay (TR-FRET tracer displacement), KRas G12V.

The next assay concerns the target T8, KRas^G13D (Homo sapiens, UniProt P01116, G13D).
T8 construct: Biotinylated KRas (corresponding to amino acids 1-169, produced at Accelegan Inc.); biotin (biotinylated); purchased Accelegan Inc
The assay is described as follows: KRas binding assay (TR-FRET tracer displacement), KRas G13D. The following applies: TR-FRET tracer displacement, KRas G13D.

For another assay, the target named is T9, KRas^Q61H (Homo sapiens, UniProt P01116, Q61H).
T9 construct: Biotinylated KRas (corresponding to amino acids 1-169, produced at Accelegan Inc.); biotin (biotinylated); purchased Accelegan Inc
Description: KRas binding assay (TR-FRET tracer displacement), KRas Q61H. The following applies: TR-FRET tracer displacement, KRas Q61H.

In assay [1] the test system is KRas-mediated phosphorylation of ERK in AsPC-1 cells. The assay is described as follows: Inhibition of KRas-mediated phosphorylation of ERK (Cisbio HTRF pERK), AsPC-1 cells. The following applies: Homo sapiens, ASPC1, AsPC-1 cells; HTRF pERK. The assay is classed as cell-based. In a few lines: (§1)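 Compound treatment lasts 3 hrs on 6,000 seeded cells, testing 10 doses from a 10 uM top concentration in 3-fold decrements at 0.8% final DMSO. Trametinib at 0.2 uM defines the Min signal. Detection is HTRF on cold-lysed cell extracts.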

The subject of assay [2] is KRas-mediated phosphorylation of ERK in H727 cells. The assay is described as follows: Inhibition of KRas-mediated phosphorylation of ERK (Cisbio HTRF pERK), H727 cells. In kind it is cell-based. The following applies: Homo sapiens, NCI-H727, H727 cells; HTRF pERK. In a few lines: as §1

T5 sequence (P01116 1-169 isoform P01116-2 G12R): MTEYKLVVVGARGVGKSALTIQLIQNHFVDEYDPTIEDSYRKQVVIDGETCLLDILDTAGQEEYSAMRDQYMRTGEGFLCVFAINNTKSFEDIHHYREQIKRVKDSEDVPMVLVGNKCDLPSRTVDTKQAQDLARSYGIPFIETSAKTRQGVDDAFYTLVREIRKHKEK
T7 sequence (P01116 1-169 isoform P01116-2 G12V): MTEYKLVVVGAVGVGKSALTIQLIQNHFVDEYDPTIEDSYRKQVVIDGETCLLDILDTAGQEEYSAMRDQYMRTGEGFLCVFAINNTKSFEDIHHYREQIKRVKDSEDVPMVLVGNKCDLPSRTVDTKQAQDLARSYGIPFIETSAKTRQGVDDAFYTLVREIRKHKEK
T6 sequence (P01116 1-169 isoform P01116-2 G12S): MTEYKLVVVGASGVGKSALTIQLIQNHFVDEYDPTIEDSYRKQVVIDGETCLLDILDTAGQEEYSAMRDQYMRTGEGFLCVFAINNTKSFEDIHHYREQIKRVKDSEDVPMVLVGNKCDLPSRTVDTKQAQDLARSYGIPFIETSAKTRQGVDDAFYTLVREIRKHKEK
T8 sequence (P01116 1-169 isoform P01116-2 G13D): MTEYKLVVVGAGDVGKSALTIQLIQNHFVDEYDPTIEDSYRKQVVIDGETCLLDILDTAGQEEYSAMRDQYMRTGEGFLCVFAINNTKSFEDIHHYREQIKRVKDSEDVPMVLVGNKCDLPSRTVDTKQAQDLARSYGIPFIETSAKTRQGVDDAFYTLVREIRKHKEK
T1 sequence (P01116 1-169 isoform P01116-2): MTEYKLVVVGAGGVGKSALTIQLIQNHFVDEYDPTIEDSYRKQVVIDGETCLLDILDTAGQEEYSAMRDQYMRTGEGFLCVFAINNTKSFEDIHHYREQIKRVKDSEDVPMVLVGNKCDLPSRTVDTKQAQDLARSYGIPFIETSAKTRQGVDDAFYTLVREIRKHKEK
T2 sequence (P01116 1-169 isoform P01116-2 G12A): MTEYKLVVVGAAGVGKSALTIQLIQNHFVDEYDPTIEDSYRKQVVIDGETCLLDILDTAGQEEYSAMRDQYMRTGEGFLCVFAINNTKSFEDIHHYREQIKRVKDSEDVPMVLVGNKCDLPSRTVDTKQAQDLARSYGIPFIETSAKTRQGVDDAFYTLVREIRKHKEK
T9 sequence (P01116 1-169 isoform P01116-2 Q61H): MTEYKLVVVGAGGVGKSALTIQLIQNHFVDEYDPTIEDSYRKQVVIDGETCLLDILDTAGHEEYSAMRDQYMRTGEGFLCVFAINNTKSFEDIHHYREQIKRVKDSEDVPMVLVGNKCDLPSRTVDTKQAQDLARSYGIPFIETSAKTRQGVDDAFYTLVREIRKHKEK
T3 sequence (P01116 1-169 isoform P01116-2 G12C): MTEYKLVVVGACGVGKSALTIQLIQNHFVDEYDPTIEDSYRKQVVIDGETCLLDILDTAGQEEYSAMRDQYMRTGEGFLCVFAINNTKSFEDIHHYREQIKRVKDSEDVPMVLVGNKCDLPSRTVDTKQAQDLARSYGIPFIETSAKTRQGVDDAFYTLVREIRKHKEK
T4 sequence (P01116 1-169 isoform P01116-2 G12D): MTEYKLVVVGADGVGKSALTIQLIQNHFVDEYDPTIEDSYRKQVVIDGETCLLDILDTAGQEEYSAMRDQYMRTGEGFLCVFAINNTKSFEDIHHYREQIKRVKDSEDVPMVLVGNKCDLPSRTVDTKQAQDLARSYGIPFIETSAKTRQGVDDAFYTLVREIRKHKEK

In the case of `CC1(O)COCCN(c2nc(OCC34CCCN3CCC4)nc3c(F)c(-c4cc(O)cc(Cl)c4C4CC4)ncc23)C1` (racemic) [Example 740, rac-(R)-4-(7-(3-chloro-2-cyclopropyl-5-hydroxyphenyl)-8-fluoro-2-((tetrahydro-1H-pyrrolizin-7a(5H)-yl)methoxy)pyrido[4,3-d]pyrimidin-4-yl)-6-methyl-1,4-oxazepan-6-ol], the half-inhibitory concentration (IC50) on KRas^WT was found to be 9 nM; at KRas^G12A, 10 nM; at KRas^G12C, 7 nM; on KRas^G12D, 4 nM; on KRas^G12R it was 11 nM; on KRas^G12S, 9 nM. The IC50 came to 5 nM at KRas^G12V; 8 nM on KRas^G13D; 6 nM on KRas^Q61H; 2630 nM in assay [1]; 3160 nM in assay [2].

As to `Cc1cc2[nH]ncc2c(-c2ncc3c(N4CC5CC(O)C(C5)C4)nc(OCC45CCCN4CCC5)nc3c2F)c1C` (centres unmarked) [Example 725, 3-(7-(5,6-dimethyl-1H-indazol-4-yl)-8-fluoro-2-((tetrahydro-1H-pyrrolizin-7a(5H)-yl)methoxy)pyrido[4,3-d]pyrimidin-4-yl)-3-azabicyclo[3.2.1]octan-6-ol], the 50% inhibitory concentration (IC50) on KRas^WT stood at 965 nM; on KRas^G12A, 763 nM; at KRas^G12C, 812 nM; on KRas^G12D, 1610 nM; on KRas^G12R, 441 nM; at KRas^G12S it was 494 nM. Moreover, the IC50 at KRas^G12V is 410 nM; at KRas^G13D, 1120 nM; at KRas^Q61H, 1210 nM; in assay [1] it was above 10000 nM; in assay [2] it was above 10000 nM.

For the compound `Cc1cc2[nH]ncc2c(-c2ncc3c(N4CC5C(=O)NC(=O)C5C4)nc(OCC45CCCN4CCC5)nc3c2F)c1C` (centres unmarked) [Example 726, 5-(7-(5,6-dimethyl-1H-indazol-4-yl)-8-fluoro-2-((hexahydro-1H-pyrrolizin-7a-yl)methoxy)pyrido[4,3-d]pyrimidin-4-yl)tetrahydropyrrolo[3,4-c]pyrrole-1,3(2H,3aH)-dione], the IC50 came to 145 nM on KRas^WT; 242 nM at KRas^G12A; 208 nM on KRas^G12C; 58 nM at KRas^G12D; 344 nM at KRas^G12R; 68 nM at KRas^G12S. Moreover, the IC50 on KRas^G12V was 131 nM; on KRas^G13D, 138 nM; on KRas^Q61H, 177 nM; in assay [1], above 10000 nM; in assay [2], above 10000 nM.

With `Cc1cc2[nH]ncc2c(-c2ncc3c(N4CCCC5(CC(O)C5)C4)nc(OCC45CCCN4CCC5)nc3c2F)c1C` (centres unmarked) [Example 727, 6-(7-(5,6-dimethyl-1H-indazol-4-yl)-8-fluoro-2-((hexahydro-1H-pyrrolizin-7a-yl)methoxy)pyrido[4,3-d]pyrimidin-4-yl)-6-azaspiro[3.5]nonan-2-ol], the IC50 is 657 nM on KRas^WT; 516 nM at KRas^G12A; 421 nM on KRas^G12C; 634 nM at KRas^G12D; 520 nM on KRas^G12R; 540 nM on KRas^G12S. The IC50 was 333 nM at KRas^G12V; 888 nM on KRas^G13D; 947 nM at KRas^Q61H; above 10000 nM in assay [1]; above 10000 nM in assay [2].

`Cc1cc2[nH]nnc2c(-c2ncc3c(N4CCCC5(C4)NC(=O)NC5=O)nc(OCC45CCCN4CCC5)nc3c2F)c1C` (centres unmarked) [Example 823, 7-(7-(5,6-dimethyl-1H-benzo[d][1,2,3]triazol-4-yl)-8-fluoro-2-((tetrahydro-1H-pyrrolizin-7a(5H)-yl)methoxy)pyrido[4,3-d]pyrimidin-4-yl)-1,3,7-triazaspiro[4.5]decane-2,4-dione]: the half-inhibitory concentration (IC50) on KRas^WT was found to be 1420 nM; on KRas^G12A, 1430 nM; at KRas^G12C, 1300 nM; at KRas^G12D, 2220 nM; on KRas^G12R, 1380 nM; on KRas^G12S, 1370 nM. The concentration for half-maximal inhibition (IC50) is 922 nM at KRas^G12V, 1270 nM on KRas^G13D and 1390 nM at KRas^Q61H.

`Cc1cc2[nH]nnc2c(-c2ncc3c(N4C[C@@H]5C[C@H](C4)[C@H](O)C5)nc(OCC45CCCN4CCC5)nc3c2F)c1C` [Example 832, (1R,5R,6R)-3-(7-(5,6-dimethyl-1H-benzo[d][1,2,3]triazol-4-yl)-8-fluoro-2-((tetrahydro-1H-pyrrolizin-7a(5H)-yl)methoxy)pyrido[4,3-d]pyrimidin-4-yl)-3-azabicyclo[3.2.1]octan-6-ol]: the IC50 at KRas^WT stood at 4590 nM; on KRas^G12A, 3770 nM; at KRas^G12C, 3200 nM; at KRas^G12D, 17100 nM; on KRas^G12R it was 6410 nM; on KRas^G12S it was 2940 nM. Further, the half-inhibitory concentration (IC50) was found to be 4550 nM at KRas^G12V, 3880 nM at KRas^G13D and 4610 nM on KRas^Q61H.

Turning to `Cc1cc2[nH]nnc2c(-c2ncc3c(N4CC5C(=O)NC(=O)C5C4)nc(OCC45CCCN4CCC5)nc3c2F)c1C` (centres unmarked) [Example 833, 5-(7-(5,6-dimethyl-1H-benzo[d][1,2,3]triazol-4-yl)-8-fluoro-2-((tetrahydro-1H-pyrrolizin-7a(5H)-yl)methoxy)pyrido[4,3-d]pyrimidin-4-yl)tetrahydropyrrolo[3,4-c]pyrrole-1,3(2H,3aH)-dione], the concentration for half-maximal inhibition (IC50) on KRas^WT was 3830 nM; at KRas^G12A it was 5130 nM; on KRas^G12C it was 4490 nM; at KRas^G12D, 1080 nM; on KRas^G12R, 9160 nM; at KRas^G12S, 1860 nM. Besides, the 50% inhibitory concentration (IC50) at KRas^G12V worked out at 3540 nM; on KRas^G13D it was 2820 nM; at KRas^Q61H, 3670 nM.

With `Cc1cc2[nH]nnc2c(-c2ncc3c(N4CCCn5nc(C(=O)N(C)C)cc5C4)nc(OCC45CCCN4CCC5)nc3c2F)c1C` [Example 839, 5-(7-(5,6-dimethyl-1H-benzo[d][1,2,3]triazol-4-yl)-8-fluoro-2-((tetrahydro-1H-pyrrolizin-7a(5H)-yl)methoxy)pyrido[4,3-d]pyrimidin-4-yl)-N,N-dimethyl-5,6,7,8-tetrahydro-4H-pyrazolo[1,5-a][1,4]diazepine-2-carboxamide], the half-inhibitory concentration (IC50) was 3780 nM at KRas^WT; 2380 nM at KRas^G12A; 1630 nM at KRas^G12C; 153 nM at KRas^G12D; 2910 nM at KRas^G12R; 1260 nM at KRas^G12S. Moreover, the half-inhibitory concentration (IC50) came to 743 nM on KRas^G12V, 4060 nM at KRas^G13D and 3810 nM on KRas^Q61H.

Regarding `Cc1cc2[nH]nnc2c(-c2ncc3c(N4CCCC5(CNC(=O)N5)C4)nc(OCC45CCCN4CCC5)nc3c2F)c1C` (centres unmarked) [Example 856, 7-(7-(5,6-dimethyl-1H-benzo[d][1,2,3]triazol-4-yl)-8-fluoro-2-((tetrahydro-1H-pyrrolizin-7a(5H)-yl)methoxy)pyrido[4,3-d]pyrimidin-4-yl)-1,3,7-triazaspiro[4.5]decan-2-one], the IC50 on KRas^WT stood at 2820 nM; at KRas^G12A, 2230 nM; at KRas^G12C, 2060 nM; on KRas^G12D, 1190 nM; on KRas^G12R, 4270 nM; on KRas^G12S it was 2510 nM. In addition, the results for the IC50 at KRas^G12V, on KRas^G13D and on KRas^Q61H were 2200 nM, 2470 nM and 2830 nM, respectively.

Consider `Cc1cc2[nH]ccc2c(-c2ncc3c(N4CCC[C@@](C)(O)C4)nc(OCC45CCCN4CCC5)nc3c2F)c1C` [Example 871, (3R)-1-(7-(5,6-dimethyl-1H-indol-4-yl)-8-fluoro-2-((tetrahydro-1H-pyrrolizin-7a(5H)-yl)methoxy)pyrido[4,3-d]pyrimidin-4-yl)-3-methylpiperidin-3-ol], for which the IC50 on KRas^WT worked out at 3420 nM; on KRas^G12A, 3690 nM; at KRas^G12C, 3820 nM; at KRas^G12D, 2670 nM; at KRas^G12R, 8950 nM; on KRas^G12S it was 4440 nM. Further, the IC50 at KRas^G12V came to 4410 nM; at KRas^G13D, 2720 nM; on KRas^Q61H, 4530 nM.

In the case of `Cc1cc2[nH]cnc2c(-c2ncc3c(N4CCC[C@@](C)(O)C4)nc(OCC45CCCN4CCC5)nc3c2F)c1C` [Example 888, (3R)-1-(7-(5,6-dimethyl-1H-benzo[d]imidazol-4-yl)-8-fluoro-2-((tetrahydro-1H-pyrrolizin-7a(5H)-yl)methoxy)pyrido[4,3-d]pyrimidin-4-yl)-3-methylpiperidin-3-ol], the IC50 came to 579 nM on KRas^WT; 375 nM at KRas^G12A; 199 nM at KRas^G12C; 40700 nM at KRas^G12D; 62300 nM at KRas^G12R; 201 nM on KRas^G12S. In addition, the 50% inhibitory concentration (IC50) on KRas^G12V stood at 58300 nM; at KRas^G13D, 567 nM; at KRas^Q61H, 539 nM.
